Patent US10006089B2, “MCL-1 as a therapeutic target in SCFFBW7 deficient neoplasm” (Beth Israel Deaconess Medical Center, Inc., priority 2011, dated 2018)
“Also recorded” adds a separate entry of the source. Where a SMILES comes first, the peptide text is derived from it. The star is where a group is joined. Cbz = O=C(OCc1ccccc1)*

Columns and labels:
Assay type in all cases: cell-based, human
[1] = system: T-ALL cell lines; test: Cell viability assay (CellTiter-Glo) of T-ALL cell lines; details: for resistance after re-introduction of 3A-Mcl-1: FIG. 14e-f; for resistance of Fbw7-deficient T-ALL cell lines compared with wild-type Fbw7 lines to apoptotic stimuli (cell viability): FIG. 13c-f; for sensitivity of Fbw7-deficient T-ALL cell lines compared with wild-type Fbw7 lines (cell viability): 0.5% FBS-containing medium, FIG. 13g; for sensitivity of Fbw7-deficient T-ALL cell lines (cell viability): 10% FBS-containing medium, FIG. 12a
Protocol: (§1) Cell culture including synchronization and transfection has been described^6,28. Wild type and Fbw7−/− DLD1 cell lines were kind gifts from Dr. Bert Vogelstein. Murine T-ALL cell lines derived from Tall transgenic mice were kind gifts from Dr. Michele A. Kelliher. Human T-ALL cell lines were previously described^2. Loucy and CMLT1 T-ALL cell lines were obtained from Jon Aster. For various assays described below, T-ALL cells were cultured in either 0.5% FBS or 10% FBS-containing medium for sorafenib (Alexis Biochemicals) or ABT-737 (Symansis) treatment. In the case of combined treatment with both sorafenib and ABT-737, T-ALL cells were maintained in 10% FBS-containing medium. Lentiviral shRNA virus packaging, retrovirus packaging, and subsequent infections were performed as described previously^28. For cell viability assays, cells were plated at 10,000 per well in 96-well plates, and incubated with the appropriate medium containing sorafenib, ABT-737 or DMSO for 48 h. Assays were performed with CellTiter-Glo Luminescent Cell Viability Assay kit according to the manufacturer's instructions (Promega). For detection of apoptosis, cells treated with various drugs were stained with propidium iodide (Roche), or co-stained with Annexin V-PE and 7-amino-actinomycin D (Annexin V-PE Apoptosis Detection Kit I, BD Bioscience) according to the manufacturer's instructions. Stained cells were sorted with Dako-Cytomation MoFlos sorter (Dako) at the Dana-Farber Cancer Institute FACS core facility.

[2] = system: Mcl-1; test: Protein degradation analysis of Myc-Mcl-1 in transfected 293T cells; details: 293T cells transfected with Myc-Mcl-1, HA-Fbw7, HA-GSK3, FIG. 9a
Protocol: Cells were transfected with Myc-Mcl-1 along with HA-Fbw7, or Flag-β-TRCP1, and GFP as a negative control, in the presence or absence of HA-GSK3 and/or HA-ERK1. For half-life studies, cycloheximide (20 μg/ml, Sigma) was added to the media 40 h post-transfection. At various time points thereafter, cells were lysed and protein abundances were measured by immunoblot analysis.

[3] = system: T-ALL cell lines; test: 7-AAD/Annexin V double-staining FACS analysis of apoptosis; details: 48 hours; for effect of sorafenib on ABT-737 sensitivity (apoptosis by FACS): sorafenib and/or ABT-737, 10% FBS
Protocol: as §1

[4] = system: Mcl-1; test: Immunoblot analysis of Mcl-1 expression in T-ALL cell lines; details: 0.5% FBS-containing medium, FIG. 13h
Protocol: Cells were lysed in EBC (50 mM Tris pH 8.0, 120 mM NaCl, 0.5% NP-40) buffer supplemented with protease inhibitors (Complete Mini, Roche) and phosphatase inhibitors (phosphatase inhibitor cocktail set I and II, Calbiochem). The protein concentrations of the lysates were measured using the Bio-Rad Bradford protein assay reagent on a Beckman Coulter DU-800 spectrophotometer. The lysates were then resolved by SDS-PAGE and immunoblotted with the indicated antibodies. For immunoprecipitation, 800 μg lysates were incubated with the appropriate antibody (1-2 μg) for 3-4 h at 4° C. followed by one-hour incubation with Protein-A Sepharose beads (GE Healthcare). Immuno-complexes were washed five times with NETN buffer (20 mM Tris, pH 8.0, 100 mM NaCl, 1 mM EDTA and 0.5% NP-40) before being resolved by SDS-PAGE and immunoblotted with the indicated antibodies. Quantification of the immunoblot band intensity was performed with Image J software.

CC[C@@]1(O)C(=O)OCc2c1cc1n(c2=O)Cc2cc3ccccc3nc2-1 [camptothecin]
resistance after re-introduction of 3A-Mcl-1 ([1]; DND41 cells): increase in resistance | resistance of Fbw7-deficient T-ALL cell lines compared with wild-type Fbw7 lines to apoptotic stimuli (cell viability) [1]: more resistant

COc1cc([C@@H]2c3cc4c(cc3[C@@H](O[C@@H]3O[C@@H]5CO[C@@H](C)O[C@H]5[C@H](O)[C@H]3O)[C@H]3COC(=O)[C@H]23)OCO4)cc(OC)c1O [etoposide]
resistance of Fbw7-deficient T-ALL cell lines compared with wild-type Fbw7 lines to apoptotic stimuli (cell viability) [1]: more resistant | sensitivity to induced apoptosis after re-introduction of wild-type Fbw7 ([1]; Fbw7-deficient HPB-ALL and JRT3-T3.5 cells, FIG. 14d): partially restored their sensitivity

CC(C)C[C@@H](C=O)NC(=O)[C@H](CC(C)C)NC(=O)[C@H](CC(C)C)NC(=O)OCc1ccccc1 [MG132] (Cbz-Leu-Leu-Leu-aldehyde)
effect on Fbw7/GSK3-mediated Mcl-1 destruction [2]: blocked

COC(=O)Nc1nc2ccc(C(=O)c3cccs3)cc2[nH]1 [Nocodazole]
resistance of Fbw7-deficient T-ALL cell lines compared with wild-type Fbw7 lines to apoptotic stimuli (cell viability) [1]: more resistant

CNC(=O)c1cc(Oc2ccc(NC(=O)Nc3ccc(Cl)c(C(F)(F)F)c3)cc2)ccn1 [sorafenib]
sensitivity of Fbw7-deficient T-ALL cell lines compared with wild-type Fbw7 lines (cell viability) ([1]; 48 hours): more sensitive | sensitivity of Fbw7-deficient T-ALL cell lines (cell viability) ([1]; 48 hours): more sensitive | effect of sorafenib on ABT-737 sensitivity (cell viability) ([1]; Fbw7-deficient HPB-ALL cells, combined with ABT-737, 10% FBS, 48 hours, FIG. 14g): dose-dependent increase of ABT-737 sensitivity; also recorded: restored ABT-737 sensitivity | effect of sorafenib on ABT-737 sensitivity (apoptosis by FACS) ([3]; Fbw7-deficient CMLT1 and JRT3-T3.5 cells, FIG. 14h): restored ABT-737 sensitivity | effect of sorafenib on ABT-737 sensitivity (apoptosis by FACS) ([3]; Fbw7-deficient HPB-ALL cells, FIG. 12e): significant increase in the induction of apoptosis; also recorded: restores ABT-737 sensitivity | effect on Mcl-1 expression [4]: effectively reduce Mcl-1 expression

CC(=O)O[C@H]1C(=O)[C@@]2(C)[C@H]([C@H](OC(=O)c3ccccc3)[C@]3(O)C[C@H](OC(=O)[C@H](O)[C@@H](NC(=O)c4ccccc4)c4ccccc4)C(C)=C1C3(C)C)[C@]1(OC(C)=O)CO[C@@H]1C[C@@H]2O [Taxol]
resistance after re-introduction of 3A-Mcl-1 ([1]; DND41 cells): increase in resistance | resistance of Fbw7-deficient T-ALL cell lines compared with wild-type Fbw7 lines to apoptotic stimuli (cell viability) [1]: more resistant

CN(C)CC[C@H](CSc1ccccc1)Nc1ccc(S(=O)(=O)NC(=O)c2ccc(N3CCN(Cc4ccccc4-c4ccc(Cl)cc4)CC3)cc2)cc1[N+](=O)[O-] [ABT-737]
sensitivity of Fbw7-deficient T-ALL cell lines compared with wild-type Fbw7 lines (cell viability) ([1]; 48 hours): resistant | sensitivity of Fbw7-deficient T-ALL cell lines (cell viability) ([1]; 48 hours): resistant | resistance after re-introduction of wild-type or 3A-Mcl-1 ([1]; DND41 cells, 10% FBS, 48 hours, FIG. 14b): increase in resistance | ABT-737 sensitivity after re-introduction of wild-type Fbw7 ([1]; Fbw7-deficient CMLT1 cells, 10% FBS, 48 hours, FIG. 14a): partially restored its sensitivity | ABT-737 sensitivity after depletion of endogenous Mcl-1 ([1]; Fbw7-deficient T-ALL cell lines, shMcl-1, 10% FBS, 48 hours, FIG. 12c): restored ABT-737 sensitivity | ABT-737-induced apoptosis in Fbw7-deficient T-ALL cells ([3]; 10% FBS, FIG. 13j, also immunoblots of apoptotic biomarkers FIG. 12b): impaired
